Holding throughout (assay): inhibition of tumour cell growth, NCI panel, 48 h
Assay [1] concerns MOLT-4.
Assay [2] relates to MDA-MB-435.
Assay [3] has as its system ACHN.
Assay [4] deals with 786-0.
Assay [5] has as its system BT-549.
Assay [6] has as its system MCF7.
Assay [7] concerns SK-MEL-28.
Assay [8] concerns NCI-H23.
In assay [9] the test system is COLO 205.
Assay [10] concerns Malme-3M.
Assay [11] relates to NCI-H460.
In assay [12] the test system is TK-10.
For assay [13], the system named is HCT-15.
In assay [14] the test system is KM12.
Assay [15] concerns SK-OV-3.
Assay [16] deals with A549.
Assay [17] relates to UACC-257.
Assay [18] relates to SN12C.
Assay [19] relates to MDA-N.
Assay [20] concerns SF-295.

Molecules are shown by their SMILES.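 A five-concentration, 48-hour dose response in 96-well plates underlies each endpoint, interpolated linearly between surrounding concentrations. GI50: concentration for 50% inhibition of growth.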 Activity calls are given as the source filed them. Cut-off read from the data, not from the text of the source: active = GI50 up to about 1.1 µM and inactive = higher.

In the case of `CN(C)c1ccc(/C=N/c2ccc(-c3nc4ccccc4o3)cc2)cc1`, the GI50 in assay [1] was 24.7 µM (inactive); in assay [2], 30.1 µM (inactive); in [3], 54.3 µM (inactive); in assay [4] it was 50.6 µM (inactive); in assay [5], 32.4 µM (inactive); in [6] it was 40.9 µM (inactive). Besides, the GI50 in [7] was 67.8 µM (inactive); in assay [8], 32.7 µM (inactive); in [9] it was 30.5 µM (inactive); in [10] it was > 100 µM (inactive); in assay [11] it was 28.8 µM (inactive); in assay [12] it was 36.5 µM (inactive). The GI50 in assay [13] was 31.8 µM; in assay [14], 31.8 µM (inactive); in assay [15] it was 35 µM (inactive); in assay [16], 46.9 µM (inactive); in assay [17], 25.5 µM (inactive); in [18], 60.8 µM (inactive).
In the case of `CN(CCCNC(=O)c1cn(C)c2c1ccc1ccccc12)CCCNC(=O)c1cn(C)c2c1ccc1ccccc12`, the GI50 in [2] was 2.06 µM (inactive); in assay [3], 1.71 µM (inactive); in assay [4], 1.87 µM (inactive); in [19], 1.45 µM (inactive); in [7] it was 1.69 µM (inactive); in assay [8], 1.51 µM (inactive). In addition, the GI50 is 1.75 µM (inactive) in [9]; 1.51 µM (inactive) in assay [11]; 1.73 µM in assay [13]; 4.6 µM (inactive) in assay [20]; 1.61 µM (inactive) in assay [14]; 1.35 µM (inactive) in assay [16]. Moreover, the GI50 in assay [17] was 1.58 µM (inactive); in assay [18], 1.41 µM (inactive).
In the case of `ClCCN1CCOC1=C1C=CC=C1`, the GI50 in [1] is 55.8 µM (inactive); in assay [2] it was > 100 µM (inactive); in [3], > 100 µM (inactive); in assay [4], > 100 µM (inactive); in assay [5], > 100 µM (inactive); in [6] it was > 100 µM (inactive). Also, the GI50 in assay [7] was > 100 µM (inactive); in assay [8], > 100 µM (inactive); in assay [9], > 100 µM (inactive); in assay [11], > 100 µM (inactive); in assay [13] it was above 100 µM; in assay [20], > 100 µM (inactive). In addition, the GI50 in [14] was 18.4 µM (inactive); in assay [15] it was > 100 µM (inactive); in assay [16], > 100 µM (inactive); in assay [17] it was > 100 µM (inactive); in assay [18], > 100 µM (inactive).
Take `CC1SC2=NC3=C(c4ccccc4C3=O)C(c3ccc(Br)cc3)N2C1=O` (centres undefined): the GI50 in assay [1] is 31.6 µM (inactive); in assay [3], > 100 µM (inactive); in assay [4], 64.4 µM (inactive); in [7] it was 43 µM (inactive); in assay [8], 40.8 µM (inactive); in assay [9], 90.2 µM (inactive). For the same compound, the GI50 is 44.3 µM (inactive) in [10]; > 100 µM (inactive) in assay [11]; > 100 µM (inactive) in [12]; 52.2 µM in [13]; 56.9 µM (inactive) in assay [20]; > 100 µM (inactive) in assay [14]. Besides, the GI50 is > 100 µM (inactive) in assay [15], 57.7 µM (inactive) in [16], > 100 µM (inactive) in assay [17] and 37.8 µM (inactive) in [18].
As for `N[C@H]1CCc2c1nc1c(c2-c2ccccc2)CC[C@@H]1N`, the GI50 in [1] is 8.73 µM (inactive); in assay [2], 15.8 µM (inactive); in assay [3], 40.1 µM (inactive); in assay [4] it was 14.7 µM (inactive); in assay [5], 12.4 µM (inactive); in assay [6], 21.8 µM (inactive). The GI50 is 25.2 µM (inactive) in assay [8]; 20.6 µM (inactive) in assay [9]; 16.7 µM (inactive) in assay [10]; 25.6 µM (inactive) in assay [11]; 28.3 µM (inactive) in assay [12]; 34.4 µM in assay [13]. Also, the GI50 is 18.5 µM (inactive) in [20]; 28.9 µM (inactive) in [14]; 34 µM (inactive) in assay [16]; > 10 µM (inactive) in assay [17]; 44.1 µM (inactive) in assay [18].
Turning to `CCOC(CN(C)C(=S)Nc1cccc2ccccc12)OCC`, the GI50 in assay [1], in [2], in [3], in [4], in assay [19] and in assay [6] was > 10 µM (inactive) each time. In addition, the GI50 in assay [7], in assay [8], in assay [9], in assay [10], in [11] and in assay [12] was > 10 µM (inactive) in each case. Besides, the GI50 in assay [13] is above 10 µM; in [20], > 10 µM (inactive); in assay [14], > 10 µM (inactive); in assay [15] it was > 10 µM (inactive); in assay [16], > 10 µM (inactive); in assay [17] it was > 10 µM (inactive). Moreover, the GI50 in assay [18] is > 10 µM (inactive).
For the compound `O=C(Nc1cnc(O)nc1O)C(Cl)Cl`, the GI50 in assay [1], in assay [2], in [3], in assay [4], in assay [19] and in assay [6] was > 100 µM (inactive) each time. For the same compound, the GI50 in assay [7] was > 100 µM (inactive); in assay [8], > 100 µM (inactive); in [9], > 100 µM (inactive); in [10], > 100 µM (inactive); in assay [12], > 100 µM (inactive); in assay [13] it was above 100 µM. The GI50 in assay [20], in assay [14], in assay [15], in assay [16], in [17] and in assay [18] was > 100 µM (inactive) in each case.
Regarding `COC(=O)c1nc(Cl)nc(Cl)c1Cl`, the GI50 is 10.5 µM (inactive) in [1]; 15.8 µM (inactive) in assay [2]; 14.4 µM (inactive) in assay [3]; 17.3 µM (inactive) in assay [4]; 29.5 µM (inactive) in assay [19]; 28.2 µM (inactive) in assay [6]. Besides, the GI50 in assay [7] was 21.1 µM (inactive); in assay [8] it was 44.7 µM (inactive); in assay [9] it was 18.6 µM (inactive); in assay [10], 20.8 µM (inactive); in [11], 32.2 µM (inactive); in assay [12], 21.2 µM (inactive). Besides, the GI50 in assay [13] is 21.9 µM; in assay [20] it was 42.3 µM (inactive); in assay [14], 22.2 µM (inactive); in assay [15], 41.9 µM (inactive); in [16], 44.1 µM (inactive); in assay [18], 20.9 µM (inactive).
`O=C(c1cccs1)N1CCCN(C(=O)c2cccs2)C1=S`: the GI50 in assay [1], in [2], in [3], in [4], in [5] and in assay [6] was > 100 µM (inactive) each time. In addition, the GI50 in assay [7] was > 100 µM (inactive); in assay [8], > 100 µM (inactive); in assay [9] it was > 100 µM (inactive); in [10] it was > 100 µM (inactive); in assay [12] it was > 100 µM (inactive); in [13] it was above 100 µM. The GI50 in assay [20], in assay [14], in assay [15], in [17] and in assay [18] was > 100 µM (inactive) throughout.

For the origin of these results see ChEMBL document CHEMBL1201862, “PubChem BioAssay data set” (2004).
